In PubChem BioAssay (NCI):
Values joined by “and” are separate entries in the source; they are usually repeats but may differ in a detail not shown here. Identical values can stand only once.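 All cell lines were grown in 96-well plates and treated with compound for 48 hours. GI50 = concentration required for 50% inhibition of growth. TGI: concentration producing complete growth inhibition.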

Experiments:
Assay in all cases: growth of human tumour cells (NCI), 48 h
HCT-15 colon = test system: HCT-15 colon
UACC-257 melanoma = test system: UACC-257 melanoma
HOP-62 NSCLC = test system: HOP-62 NSCLC
SNB-75 CNS = test system: SNB-75 CNS
OVCAR-4 ovarian = test system: OVCAR-4 ovarian
SW-620 colon = test system: SW-620 colon
CAKI-1 renal = test system: CAKI-1 renal
M14 melanoma = test system: M14 melanoma
OVCAR-5 ovarian = test system: OVCAR-5 ovarian
SF-268 CNS = test system: SF-268 CNS

Row | SMILES | GI50 (HCT-15 colon) [µM] | TGI (HCT-15 colon) [µM] | GI50 (UACC-257 melanoma) [µM] | TGI (UACC-257 melanoma) [µM] | GI50 (HOP-62 NSCLC) [µM] | TGI (HOP-62 NSCLC) [µM] | GI50 (SNB-75 CNS) [µM] | TGI (SNB-75 CNS) [µM] | GI50 (OVCAR-4 ovarian) [µM] | TGI (OVCAR-4 ovarian) [µM] | GI50 (SW-620 colon) [µM] | TGI (SW-620 colon) [µM] | GI50 (CAKI-1 renal) [µM] | TGI (CAKI-1 renal) [µM] | GI50 (M14 melanoma) [µM] | TGI (M14 melanoma) | GI50 (OVCAR-5 ovarian) [µM] | TGI (OVCAR-5 ovarian) [µM] | GI50 (SF-268 CNS) | TGI (SF-268 CNS) [µM]
1 | Br[C](Br)(Br)[Hg][c]1ccccc1 | 9.39 | 24 | 13.5 | 26.7 | 13.4 | 18.7 | 15.8 | 32.6 | 19.9 | 41.9 | 1.65 | 8.01 | 15.2 | 29.8 | 5.23 | 12.2 µM | 15.4 | 28.8 | 24.1 µM | 56.2
2 | COc1cc(/C=C/c2ccc(OC)c(OC)c2)cc(OC)c1 |  | 23.7 |  | > 100 |  | > 100 |  | > 100 |  | > 100 |  | > 100 |  | 94.1 |  | 67.9 µM |  | > 100 |  | > 100
3 | COc1ccc(/C=C/c2cc(OC)cc(=O)o2)cc1 |  | > 100 |  | > 100 |  | > 100 |  | 44.6 |  | > 100 |  | > 100 |  | > 100 |  | > 100 µM |  | > 100 |  | > 100
4 | O=S(=O)(Nc1cc(Sc2cccc3cccnc23)c(O)c2ccccc12)c1ccccc1 | 0.464 | 2.5 | 1.87 | 5.01 | 1.01 | 25.4 | 3.23 | 16.9 | 0.474 | 1.75 | 1.04 | 11.6 | 1.97 | 10.1 | 1.12 | 9.2 µM | 1.99 | 11 | 1.48 µM | 12.8
5 | CC/C=C\C[C@H]1C/C=C2/C(=O)C=C[C@@H]2C/C=C\CCCC(=O)O1 | 0.423 | 2.86 | 1.78 | 5.23 | 1.81 | 5.39 | 4.02 | 18 | 2.73 | 16.3 | 0.454 | 5.52 | 1.05 | 8.98 | 0.599 | 3.7 µM | 0.567 | 2.53 | 2.16 µM | 9.49
6 | C[C@H](O)C(=O)N1CCC(CCn2c(Sc3cc4c(cc3Br)OCO4)nc3c(N)ncnc32)CC1 | 1.3 | > 100 | 2.13 | > 100 | 1.73 | > 100 | 9.04 | > 100 | > 20.1 | > 100 | 0.49 | > 100 | 2.26 | > 100 | 0.965 | > 100 µM | 2.74 | > 100 | 8.83 µM | > 100
7 | CN(C)CCN1C(=O)c2ccc3c4c(ccc(c24)C1=O)C(=O)N(CCN=C=S)C3=O | 0.0579 | 0.221 | 0.0849 | 0.216 | 0.0503 | 0.194 | 0.058 | 0.198 | 0.13 | 0.365 | 0.0269 | 0.155 | 0.0448 | 0.785 | 0.0735 | 0.216 µM | 0.153 | 0.815 | 0.0466 µM | 0.29
8 | Cc1ccc2[nH]c(O)c(N=Nc3ccc(S(N)(=O)=O)cc3)c2c1 | 11.1 | > 25 | > 25 | > 25 | 11.5 | > 25 | 8.46 | > 25 | 6.62 | > 25 | 10.2 | > 25 | 17.8 | > 25 | > 25 | > 25 µM | > 25 | > 25 | 11.8 µM | > 25
9 | C=CC/C=C/C/C=C/CCCCCCCc1cccc(O)c1C(=O)O |  | > 100 |  | > 100 |  | 67.5 |  | > 100 |  | > 100 |  | > 100 |  | > 100 |  | > 100 µM |  | > 100 |  | 80.8
10 | Nc1nc(F)nc2c1ncn2C1OC(CO)C(O)C1O (configuration not stated) | 56.7 | > 100 |  | > 100 | 13.6 | > 79.6 |  | > 100 |  | > 100 | 60.2 | > 100 | 6.25 | > 96.2 | 6.39 | > 58.6 µM and 40.2 µM |  | > 100 | 55.4 µM | > 100
11 | CCOc1cc(C(C)(C)C)ccc1C1=N[C@@](C)(c2ccc(Cl)cc2)[C@@](C)(c2ccc(Cl)cc2)N1C(=O)N1CCN(CCCS(C)(=O)=O)CC1 | 2.3 | 6.01 | 2.02 | 15.8 | 11.4 | 29.3 | 3.64 | 17.3 | 7.33 | 22.5 | 11.2 | 29.3 | 0.214 | 5.15 | 3.6 | > 100 µM | 8.41 | 20.8 | 9.42 µM | 37.6
12 | CCCSc1nc(COC(=O)NC)c(COC(=O)NC)n1C |  | > 100 |  | > 100 |  | > 100 |  | > 100 |  | > 100 |  | > 100 |  | > 100 |  | > 100 µM |  | > 100 | 44.4 µM and > 100 µM | > 100
